# According to US8686224B2, “Plant defense signal peptides” (priority 2005, dated 2014):
# Several values for one entry are separate records, joined by “and”; a condition that tells them apart may be missing. Identical values can stand only once.
# Biological target: T1, AtPEPR2 (Arabidopsis thaliana, UniProt Q9FZ59)
# T1 construct: the AtPEPR2 coding region was fused to the CaMV 35S promoter and introduced into tobacco suspension-cultured cells; expressed in transfected cells; host or cells: tobacco suspension-cultured cells, transformed by Agrobacterium, kanamycin-selected
# T1 sequence (Q9FZ59 27-1088): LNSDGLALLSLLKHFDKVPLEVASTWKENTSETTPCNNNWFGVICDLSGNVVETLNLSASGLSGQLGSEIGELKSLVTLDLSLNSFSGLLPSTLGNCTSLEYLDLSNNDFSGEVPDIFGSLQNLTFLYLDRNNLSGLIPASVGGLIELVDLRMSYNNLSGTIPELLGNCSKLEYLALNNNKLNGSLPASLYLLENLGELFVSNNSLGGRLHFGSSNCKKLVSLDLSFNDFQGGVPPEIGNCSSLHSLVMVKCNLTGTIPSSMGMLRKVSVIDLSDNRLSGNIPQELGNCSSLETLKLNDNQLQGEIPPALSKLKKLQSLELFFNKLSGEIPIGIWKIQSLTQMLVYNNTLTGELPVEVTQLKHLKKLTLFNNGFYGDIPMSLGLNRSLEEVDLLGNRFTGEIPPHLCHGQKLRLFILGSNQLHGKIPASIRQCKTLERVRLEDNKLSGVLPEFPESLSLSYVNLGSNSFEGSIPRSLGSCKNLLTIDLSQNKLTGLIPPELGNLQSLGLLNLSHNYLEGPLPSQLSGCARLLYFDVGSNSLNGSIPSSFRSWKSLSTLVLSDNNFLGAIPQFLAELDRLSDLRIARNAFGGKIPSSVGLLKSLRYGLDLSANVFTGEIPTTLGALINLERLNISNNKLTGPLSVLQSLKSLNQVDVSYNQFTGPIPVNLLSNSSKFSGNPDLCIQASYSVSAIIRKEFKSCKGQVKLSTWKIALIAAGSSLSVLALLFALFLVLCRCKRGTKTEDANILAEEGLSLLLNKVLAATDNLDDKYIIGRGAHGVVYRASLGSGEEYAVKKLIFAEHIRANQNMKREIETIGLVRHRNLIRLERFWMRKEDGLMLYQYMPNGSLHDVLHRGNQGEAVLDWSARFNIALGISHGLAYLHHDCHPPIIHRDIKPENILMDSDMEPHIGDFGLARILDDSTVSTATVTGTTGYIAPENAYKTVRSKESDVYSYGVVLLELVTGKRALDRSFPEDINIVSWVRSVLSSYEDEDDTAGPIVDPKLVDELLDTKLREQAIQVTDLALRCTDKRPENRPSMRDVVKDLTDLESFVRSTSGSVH
# Experiment: Medium alkalinization of transgenic tobacco cells expressing AtPEPR2
# Type: cell-based
# Procedure: To clarify whether AtPEPR2 binds to AtPep1, the AtPEPR2 coding region was fused to the CaMV 35S promoter and introduced into tobacco suspension-cultured cells by Agrobacterium. Tobacco cells expressing AtPEPR1 and GUS genes were also created as positive and negative controls, respectively. […] These transgenic lines were analyzed for alkalinizing activity as previously described (Pearce et al., Proc. Natl. Acad. Sci. USA 98, 12843-12847, 2001).
# The response to all AtPep peptides in transgenic tobacco cells expressing either AtPEPR1 or AtPEPR2 was analyzed by the medium alkalinization assay.
# [1] = AtPEPR2 expressing tobacco cells
substance,measurement,setting,value
H-ATKVKAKQRGKEKVSSGRPGQHN-OH [AtPep1],EC50,,~0.25 nM
same,alkalinization of the medium,[1],caused alkalinization of the media
same,maximal change,[1],1-1.2 pH units and 1.2 pH units
